“And” between values parts separate entries of the source, which are not always exact repeats. Identical values can stand only once. Toxic doses and inconclusive results are not listed. Cut-off read from the data, not from the text of the source: active = T/C of 150% or more; inactive = T/C below 125%.
System: L1210 leukemia ip in BDF1 mice, survival T/C
Assay: NCI In Vivo Anticancer Drug Screen. Data for tumor model L1210 Leukemia (intraperitoneal) in B6D2F1 (BDF1) mice
Details: endpoint: mean survival time, higher = longer survival
Summary of the method: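 Mice bearing the transplanted tumor received compound or vehicle. Survival of the treated group was divided by that of the vehicle-treated control group to give the ratio.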

[1] = dose: 100.0 mg/kg/injection, schedule: Q01DX009 (ip), vehicle: Klucel (hydroxypropylcellulose) (HPC)
[2] = dose: 200.0 mg/kg/injection, schedule: Q01DX009 (ip), vehicle: Klucel (hydroxypropylcellulose) (HPC)
[3] = dose: 400.0 mg/kg/injection, schedule: Q01DX009 (ip), vehicle: Klucel (hydroxypropylcellulose) (HPC)
[4] = dose: 100.0 mg/kg/injection, schedule: Q01DX001 (ip), vehicle: Klucel (hydroxypropylcellulose) (HPC)
[5] = dose: 200.0 mg/kg/injection, schedule: Q01DX001 (ip), vehicle: Klucel (hydroxypropylcellulose) (HPC)
[6] = dose: 400.0 mg/kg/injection, schedule: Q01DX001 (ip), vehicle: Klucel (hydroxypropylcellulose) (HPC)
[7] = dose: 100.0 mg/kg/injection, schedule: Q04DX003 (ip), vehicle: saline with Tween-80
[8] = dose: 200.0 mg/kg/injection, schedule: Q04DX003 (ip), vehicle: saline with Tween-80
[9] = dose: 400.0 mg/kg/injection, schedule: Q04DX003 (ip), vehicle: saline with Tween-80
[10] = dose: 100.0 mg/kg/injection, schedule: Q01DX009 (ip), vehicle: saline with Tween-80
[11] = dose: 200.0 mg/kg/injection, schedule: Q01DX009 (ip), vehicle: saline with Tween-80
[12] = dose: 400.0 mg/kg/injection, schedule: Q01DX009 (ip), vehicle: saline with Tween-80
[13] = dose: 100.0 mg/kg/injection, schedule: Q04DX003 (ip), vehicle: saline
[14] = dose: 200.0 mg/kg/injection, schedule: Q04DX003 (ip), vehicle: saline
[15] = dose: 400.0 mg/kg/injection, schedule: Q04DX003 (ip), vehicle: saline
[16] = dose: 100.0 mg/kg/injection, schedule: Q04DX002 (ip), vehicle: Klucel (hydroxypropylcellulose) (HPC)
[17] = dose: 200.0 mg/kg/injection, schedule: Q04DX002 (ip), vehicle: Klucel (hydroxypropylcellulose) (HPC)
[18] = dose: 400.0 mg/kg/injection, schedule: Q04DX002 (ip), vehicle: Klucel (hydroxypropylcellulose) (HPC)

Measured: T/C

OCc1cc2ccccc2cc1O
inactive: [1] 97 % of control | dose: 100.0 mg/kg/injection, schedule: Q04DX003 (ip), vehicle: Klucel (hydroxypropylcellulose) (HPC) 97 % of control | [2] 106 % of control | dose: 200.0 mg/kg/injection, schedule: Q04DX003 (ip), vehicle: Klucel (hydroxypropylcellulose) (HPC) 94 % of control | [3] 108 % of control | dose: 400.0 mg/kg/injection, schedule: Q04DX003 (ip), vehicle: Klucel (hydroxypropylcellulose) (HPC) 89 % of control

O=[N+]([O-])c1cc(Br)cnc1Br
inactive: [4] 100 % of control | [1] 101 % of control | [5] 105 % of control | [2] 96 % of control | [6] 105 % of control | [3] 103 % of control

CN(C)S(=O)(=O)c1ccc(CC(=O)c2ccccc2)cc1
inactive: dose: 100.0 mg/kg/injection, schedule: Q01DX001 (ip), vehicle: carboxymethylcellulose (CMC) 115 % of control | dose: 200.0 mg/kg/injection, schedule: Q01DX001 (ip), vehicle: carboxymethylcellulose (CMC) 98 % of control | dose: 400.0 mg/kg/injection, schedule: Q01DX001 (ip), vehicle: carboxymethylcellulose (CMC) 96 % of control

CC(=O)N(C)NC(=O)c1ccccn1
inactive: dose: 12.5 mg/kg/injection, schedule: Q01DX009 (ip), vehicle: water 103 % of control | dose: 25.0 mg/kg/injection, schedule: Q01DX009 (ip), vehicle: water 103 % of control | dose: 50.0 mg/kg/injection, schedule: Q01DX009 (ip), vehicle: water 105 % of control

CC(C(CC(=O)c1ccccc1)c1ccccc1)[N+](=O)[O-] (stereo not given)
inactive: [4] 124 % of control | [7] 98 % of control | [5] 97 % of control | [8] 97 % of control | [6] 96 % of control | [9] 92 % of control

N=C(N)c1cccc(NC(=O)c2ccc(C(=O)Nc3cccc(C(=N)N)c3)cc2)c1
inactive: dose: 8.0 mg/kg/injection, schedule: Q01DX Z (ip), vehicle: carboxymethylcellulose (CMC) 95 % of control | dose: 15.0 mg/kg/injection, schedule: Q01DX Z (ip), vehicle: saline 95 % of control | dose: 16.0 mg/kg/injection, schedule: Q01DX Z (ip), vehicle: carboxymethylcellulose (CMC) 96 % of control | dose: 30.0 mg/kg/injection, schedule: Q01DX Z (ip), vehicle: saline 120 % of control | dose: 31.0 mg/kg/injection, schedule: Q01DX Z (ip), vehicle: carboxymethylcellulose (CMC) 106 % of control | dose: 60.0 mg/kg/injection, schedule: Q01DX Z (ip), vehicle: saline 104 % of control | dose: 62.0 mg/kg/injection, schedule: Q01DX Z (ip), vehicle: carboxymethylcellulose (CMC) 113 % of control

O=C(C=C(C(F)(F)F)C(F)(F)F)c1ccc(Cl)c2ccccc12
inactive: dose: 12.5 mg/kg/injection, schedule: Q01DX009 (ip), vehicle: saline with Tween-80 94 % of control | dose: 25.0 mg/kg/injection, schedule: Q01DX009 (ip), vehicle: saline with Tween-80 92 % of control | dose: 25.0 mg/kg/injection, schedule: Q04DX003 (ip), vehicle: saline with Tween-80 107 % of control | dose: 50.0 mg/kg/injection, schedule: Q04DX003 (ip), vehicle: saline with Tween-80 90 % of control

CCOC(=O)c1ccc(OC(=O)Nc2ccccc2)cc1
inactive: [10] 98 % of control | [7] 98 % of control | [11] 96 % of control | [8] 95 % of control | [12] 90 % of control | [9] 91 % of control

CC(C)C[As](=O)(O)CC(C)C
inactive: dose: 25.0 mg/kg/injection, schedule: Q04DX003 (ip), vehicle: saline 104 % of control | dose: 50.0 mg/kg/injection, schedule: Q04DX003 (ip), vehicle: saline 109 % of control

CC(C)N=C(N)C(N)=NC(C)C
inactive: dose: 100.0 mg/kg/injection, schedule: Q01DX009 (ip), vehicle: saline 97 % of control | [13] 98 % of control | dose: 200.0 mg/kg/injection, schedule: Q01DX009 (ip), vehicle: saline 92 % of control | [14] 104 % of control | dose: 400.0 mg/kg/injection, schedule: Q01DX009 (ip), vehicle: saline 96 % of control | [15] 96 % of control

COC(=O)C(C)=O
inactive: [10] 103 % of control | [11] 101 % of control | [12] 98 % of control

CC(O)(CCl)C(=O)O (stereo not given)
inactive: [13] 96 % of control | [14] 98 % of control | [15] 96 % of control

FC1(F)SC2CC/C=C\CCC2C1(F)F (stereo not given)
inactive: dose: 0.75 mg/kg/injection, schedule: Q04DX003 (ip), vehicle: Klucel (hydroxypropylcellulose) (HPC) 90 % of control | dose: 1.5 mg/kg/injection, schedule: Q01DX009 (ip), vehicle: Klucel (hydroxypropylcellulose) (HPC) 96 % of control | dose: 1.5 mg/kg/injection, schedule: Q04DX003 (ip), vehicle: Klucel (hydroxypropylcellulose) (HPC) 98 % of control | dose: 3.0 mg/kg/injection, schedule: Q01DX009 (ip), vehicle: Klucel (hydroxypropylcellulose) (HPC) 102 % of control | dose: 3.0 mg/kg/injection, schedule: Q04DX003 (ip), vehicle: Klucel (hydroxypropylcellulose) (HPC) 102 % of control | dose: 3.12 mg/kg/injection, schedule: Q04DX003 (ip), vehicle: Klucel (hydroxypropylcellulose) (HPC) 86 % of control | dose: 12.0 mg/kg/injection, schedule: Q04DX003 (ip), vehicle: Klucel (hydroxypropylcellulose) (HPC) 88 % of control

CCCCCCCCC(=O)Nc1nc2nc[nH]c2c(=O)[nH]1
inactive: dose: 100.0 mg/kg/injection, schedule: Q01DX001 (ip), vehicle: other 94 % of control | [1] 94 % of control | dose: 200.0 mg/kg/injection, schedule: Q01DX001 (ip), vehicle: other 86 % of control | [2] 90 % of control | dose: 400.0 mg/kg/injection, schedule: Q01DX001 (ip), vehicle: other 86 % of control | [3] 90 % of control

CCOc1ccc(N=[N+]([O-])c2ccc(OCC)cc2)cc1
inactive: dose: 100.0 mg/kg/injection, schedule: Q01DX001 (ip), vehicle: saline with Tween-80 103 % of control | dose: 200.0 mg/kg/injection, schedule: Q01DX001 (ip), vehicle: saline with Tween-80 103 % of control | dose: 400.0 mg/kg/injection, schedule: Q01DX001 (ip), vehicle: saline with Tween-80 92 % of control

CC(=O)Nc1c2ccccc2nc2c1c(C)c(C)c1ccccc12
inactive: dose: 50.0 mg/kg/injection, schedule: Q01DX001 (ip), vehicle: Klucel (hydroxypropylcellulose) (HPC) 87 % of control | [4] 89 % of control | [5] 94 % of control | [6] 91 % of control

OCC(O)COc1ccc(OCc2ccccc2)cc1 (stereo not given)
inactive: dose: 12.5 mg/kg/injection, schedule: Q01DX009 (ip), vehicle: Klucel (hydroxypropylcellulose) (HPC) 94 % of control | dose: 25.0 mg/kg/injection, schedule: Q01DX009 (ip), vehicle: Klucel (hydroxypropylcellulose) (HPC) 102 % of control | dose: 50.0 mg/kg/injection, schedule: Q01DX009 (ip), vehicle: Klucel (hydroxypropylcellulose) (HPC) 93 % of control and 87 % of control

COc1ccccc1CN1CCCN(Cc2ccccc2OC)C1c1cccc(OC)c1O
inactive: dose: 50.0 mg/kg/injection, schedule: Q01DX001 (ip), vehicle: saline 95 % of control | dose: 100.0 mg/kg/injection, schedule: Q01DX001 (ip), vehicle: saline 101 % of control | dose: 200.0 mg/kg/injection, schedule: Q01DX001 (ip), vehicle: saline 93 % of control | dose: 400.0 mg/kg/injection, schedule: Q01DX001 (ip), vehicle: saline 93 % of control

CC1(C)CC(=O)NN1C(=O)c1ccccc1
inactive: [7] 108 % of control | [8] 103 % of control | [9] 102 % of control

CN(C)c1ccc(N=Nc2nccs2)cc1
inactive: [7] 91 % of control | [9] 88 % of control

O=COC1CC2CC1C1CCCC21 (stereo not given)
inactive: [7] 94 % of control | [8] 92 % of control

NC(=O)N/N=C/C(=O)O
inactive: [16] 96 % of control | [17] 104 % of control | [18] 104 % of control

Cc1ccc(C2C(C(=O)O)C2c2ccccc2)cc1 (stereo not given)
inactive: [16] 106 % of control | [17] 95 % of control | [18] 92 % of control

— PubChem BioAssay AID248 (DTP/NCI, 2004)
